Patent publication US10688110B2 (NanGenex Nanotechnology Incorporated, priority 2015, dated 2020)
Like-named read-outs stand apart in the source and are kept apart here.

What was measured:
[1] = healthy subjects, within the clinical dose range; cited from earlier work
PAMPA permeability = type: in vitro ADME; conditions: pH 7, simulated saliva condition
[2] = cited from earlier work
[3] = cited from earlier work; remark: listed apart in the source
[4] = single oral dose of radiolabeled drug

Question: Which results are given for `Cc1ccc(-c2cc(C(F)(F)F)nn2-c2ccc(S(N)(=O)=O)cc2)cc1` [Celecoxib, 4-[5-(4-methylphenyl)-3-(trifluoromethyl)-1H-pyrazol-1-yl] benzenesulfonamide]?
Answer: protein bound [1]: ~97%; Papp (PAMPA permeability): 0.3 ×10⁻⁶ cm/s; time of peak plasma levels ([2]; after an oral dose): approximately 3 hrs; effective half-life ([2]; fasted conditions): approximately 11 hours; dose proportionality of Cmax and AUC ([2]; fasting conditions, up to 200 mg BID): roughly dose-proportional; overall systemic exposure (AUC), intact capsule vs capsule contents sprinkled on applesauce ([2]; healthy adult volunteers): equivalent; apparent plasma clearance (CL/F) ([2]; human, in vivo): about 500 mL/min; unchanged drug recovered in the urine and feces ([2]; human, in vivo): < 3%; steady-state conditions reached ([2]; multiple dosing): ≤ 5 days; time of peak plasma levels ([2]; single dose of 200 mg of current formulation, oral): 3 h; onset of pain relief ([2]; single dose of 200 mg of current formulation): ≥ 1 h; dose excreted in the feces [2, 4]: approximately 57%; dose excreted into the urine [2, 4]: 27%; solubility in methanol and chloroform [3]: soluble; solubility in water [3]: insoluble
